# Key:
# [1] = tested on: Plasmodium falciparum; test: NOVARTIS: Inhibition of Plasmodium falciparum 3D7 (drug-susceptible) proliferation in erythrocyte-based infection assay; format: functional, organism-based; conditions: Plasmodium falciparum, 3D7
# [2] = NOVARTIS: Cytotoxicity against human hepatocellular carcinoma cell line (Huh7); format: toxicity, cell-based, Huh-7; conditions: Huh7 cells (hepatocellular carcinoma cell line)
# [3] = tested on: Plasmodium falciparum; test: NOVARTIS: Inhibition of Plasmodium falciparum W2 (drug-resistant) proliferation in erythrocyte-based infection assay; format: functional, organism-based; conditions: Plasmodium falciparum, W2; read-out: EC50
SMILES,EC50 [1],CC50 [2],EC50 [3]
COc1ccc(CN2CSC3=C(C#N)C(c4cccc(OC)c4)CC(=O)N3C2)cc1 (centres undefined),3700 nM,> 100000 nM,3550 nM
CC(C)(C)NCC(O)COc1cccc2oc3ccccc3c12 (centres undefined),> 1250 nM,> 10000 nM,653 nM
Cn1nc(C(=O)N2CCCC2)c2c1CCC(NCc1cnc3ccccc3c1)C2 (centres undefined),> 1250 nM,> 10000 nM,> 843 nM
CCOc1ccc(-c2cn3c([n+]2Cc2ccccc2)SCCC3)cc1,648 nM,> 10000 nM,1090 nM
Cn1c2ccccc2c2nnc(NN=Cc3ccccn3)nc21,866 nM,> 10000 nM,793 nM
CC(=O)N(C)C1=C(N2CCCCCC2)C(=O)c2ccccc2C1=O,35.8 nM,1860 nM,38.6 nM
COc1cc2ncnc(NC3CCN(Cc4ccccc4)CC3)c2cc1OC,400 nM,> 100000 nM,485 nM
COc1ccc(-c2cnc3ccc(NC4CCOCC4)nn23)cc1OC,> 933 nM,> 10000 nM,> 1620 nM
C[n+]1cccc2ccc3cccnc3c21,66.4 nM,> 8030 nM,140 nM
N#C/C(=C\c1cn(Cc2ccc(Cl)cc2Cl)c2ccccc12)c1nc2ccccc2[nH]1,315 nM,> 10000 nM,1150 nM
O=C(CSc1nc2ccccc2c(=O)n1-c1ccc(C(=O)N2CCOCC2)cc1)c1ccccc1,> 772 nM,> 10000 nM,> 1250 nM
CC1CCC2C(C)C(O)OC3OC4(C)CCC1C32OO4 (centres undefined),7.05 nM,> 10000 nM,3.31 nM
CON(C)C=C(C(=O)Nc1ccc(C(F)(F)F)cc1)C(=O)Nc1ccc(C(F)(F)F)cc1,659 nM,> 10000 nM,515 nM
Cc1cc(N2CCN(C)CC2)nc2ccc(NC(=O)/C=C/c3ccc4c(c3)OCO4)cc12,> 1250 nM,> 10000 nM,292 nM
O=C1CN=C(c2ccccc2)c2cc(Cl)ccc2N1Cc1cc(=O)n2ccccc2n1,3550 nM,> 100000 nM,344 nM
COc1ccc(C2CC(=O)C3=C(C2)NC(=O)CC3c2ccc(C(F)(F)F)cc2)cc1OC (centres undefined),182 nM,> 100000 nM,123 nM
COc1ccccc1Cc1nc2ccccc2nc1SCC(=O)Nc1cccc(C(F)(F)F)c1,> 5520 nM,> 100000 nM,> 8340 nM
CC(C)N(CC(=O)Nc1cc(C(C)(C)C)nn1-c1ccc(Cl)c(Cl)c1)C(=O)c1ccc(Cl)c(Cl)c1,1010 nM,> 10000 nM,356 nM
Cc1cc2c(cc1C)-c1c(ssc1=Nc1cccc(C)c1C)C(C)(C)N2,8590 nM,> 100000 nM,1620 nM
CCCN(CCC)C1=CC(=O)C(C(C)(C)C)=CC1=O,216 nM,50900 nM,171 nM
COc1ccc(S(=O)(=O)Nc2ccc(N3CCC(Cc4ccccc4)CC3)c(C(=O)NC(C)C)c2)cc1,2120 nM,> 100000 nM,2430 nM
COCCN(Cc1cc2ccc(F)cc2nc1N1CCCCCC1)C(=O)c1ccoc1,5200 nM,> 100000 nM,1110 nM
C=CCN1CCN(C(c2ccccc2F)c2nnnn2Cc2ccco2)CC1 (centres undefined),> 12500 nM,> 77000 nM,2910 nM
O=C(CSc1ccccc1)NCCCCNc1ccnc2cc(Cl)ccc12,488 nM,> 10000 nM,632 nM
Oc1ccc(CN2CCCCC2)nc1-c1ccccc1,241 nM,> 100000 nM,86.6 nM
O=C1NC(=O)C(Cc2ccc(S(=O)(=O)N3CCN(c4ccccc4)CC3)cc2)S1 (centres undefined),790 nM,> 100000 nM,5430 nM
CCCNC(=O)N1CCC2(CC1)CC(=O)c1cc(C)ccc1O2,870 nM,> 100000 nM,448 nM
COc1ccc2c(c1)-c1c(ssc1=S)C(C)(C)N2C(=O)c1ccccc1F,652 nM,> 100000 nM,118 nM

# Source: ChEMBL document CHEMBL1156829 (Proc Natl Acad Sci U S A, 2008)
